# Data: patent US8269026B2, “Lupane derivatives useful for treating HIV” (priority 2008, dated 2012)
# Tested on: HIV-1 (HIVIIIB) replication in MT2 cell line
# Assay: HIV-1 replication in MT2 cell line with and without 30% human serum (viral RT activity in supernatant)
# Format: cell-based
# Settings: Human immunodeficiency virus 1, MT2 cells, with 30% human serum, average IC50 if tested more than once, read-out: MT2 (HIVIIIB) with HS 30% IC50 range
# Method: HIV-1 Replication in MT2 cell line with and without 30% human serum: The cells are infected at a Multiciplicity of Infection (MOI) of 0.5 for 3 h and then washed twice with complete media to remove residual virus. Cells are then resuspended at 0.5×10^6/ml in complete medium (RPMI, 10% FBS, 1% sodium pyruvate), and seeded into 96-well plates (6.25×10^4/well). The cells are cultured in the presence or absence of various concentrations of test compounds in serial dilutions for 3 days at 37° C. The test compounds are serially diluted in complete medium supplemented or not with 30% human serum. After 3 days, 100 μL of cultured medium with cells are replaced with 120 μL of freshly diluted test compounds in complete medium containing or not 30% Human serum. The level of HIV-1 replication is determined at days 5 after infection by the presence of viral RT activity in harvested supernatant fluid. The IC50 and IC90 values for the virus replication are determined by using GRAPHPAD PRISM software.
# The IC50 of the compounds tested in accordance with the HIV replication activity assay MT2 (HIVIIIB) are represented in Table 1.
row,SMILES,IC50 [nM]
1,"CC(C)C1=C2[C@H]3CC[C@@H]4[C@@]5(C)CC[C@H](OC(=O)CC(C)(C)C(=O)O)C(C)(C)[C@@H]5CC[C@@]4(C)[C@]3(C)CC[C@@]2(NC(=O)NC[C@@H]2CCCN2C(=O)OC(C)(C)C)CC1=O [17-34, 3β-O-(3′,3′-Dimethylsuccinyl)-17β-[(3-(S)-1-tert-butyloxycarbonyl-pyrrolidin-2-ylmethyl)-ureido]-21-oxolup-18-ene]",< 199
2,"CC(C)C1=C2[C@H]3CC[C@@H]4[C@@]5(C)CC[C@H](OC(=O)CC(C)(C)C(=O)O)C(C)(C)[C@@H]5CC[C@@]4(C)[C@]3(C)CC[C@@]2(NC(=O)Nc2ncccn2)CC1=O [17-32, 3β-O-(3′,3′-Dimethylsuccinyl)-17β-(N′-pyrimidin-2-yl-ureido)-21-oxolup-18-ene]",< 199
3,"CC(C)C1=C2[C@H]3CC[C@@H]4[C@@]5(C)CC[C@H](OC(=O)CC(C)(C)C(=O)O)C(C)(C)[C@@H]5CC[C@@]4(C)[C@]3(C)CC[C@@]2(NC(=O)N2CCNCC2)CC1=O [17-15, 3β-O-(3′,3′-Dimethylsuccinyl)-17β-[(piperazine-1-carbonyl)-amino]-21-oxolup-18-ene]",< 199
4,"CC(C)C1=C2[C@H]3CC[C@@H]4[C@@]5(C)CC[C@H](OC(=O)CC(C)(C)C(=O)O)C(C)(C)[C@@H]5CC[C@@]4(C)[C@]3(C)CC[C@@]2(NC(=O)CCCN2CCCC2)CC1=O [19-39, 3β-O-(3′,3′-Dimethylsuccinyl)-17β-(4-pyrrolidin-1-yl-butyramido)-21-oxolup-18-ene]",< 199
5,"CC(C)C1=C2C3CCC4[C@@]5(C)CC[C@H](OC(=O)CC(C)(C)C(=O)O)C(C)(C)C5CC[C@@]4(C)[C@]3(C)CC[C@@]2(NC(=O)N[C@@H](C)c2ccccc2)CC1=O (stereo partly drawn) [17-61, 3β-O-(3′,3′-Dimethylsuccinyl)-17β-[N′-((S)-1-phenyl-ethyl)-ureido]-21-oxolup-18-ene]",< 199
6,"CC(C)C1=C2C3CCC4[C@@]5(C)CC[C@H](OC(=O)CC(C)(C)C(=O)O)C(C)(C)C5CC[C@@]4(C)[C@]3(C)CC[C@@]2(NC(=O)c2ncccn2)CC1=O (stereo partly drawn) [19-22, 3β-O-(3′,3′-Dimethylsuccinyl)-17β-(pyrimidine-2-amido)-21-oxolup-18-ene]",< 199
7,"Cc1ccc(C(=O)N[C@@]23CC[C@]4(C)[C@H](CC[C@@H]5[C@@]6(C)CC[C@H](OC(=O)CC(C)(C)C(=O)O)C(C)(C)[C@@H]6CC[C@]54C)C2=C(C(C)C)C(=O)C3)cc1 [19-43, 3β-O-(3′,3′-Dimethylsuccinyl)-17β-(4-methylbenzamido)-21-oxolup-18-ene]",< 199
8,"CC(C)C1=C2[C@H]3CC[C@@H]4[C@@]5(C)CC[C@H](OC(=O)CC(C)(C)C(=O)O)C(C)(C)[C@@H]5CC[C@@]4(C)[C@]3(C)CC[C@@]2(NC(=O)CCN2CCCCC2)CC1=O [19-40, 3β-O-(3′,3′-Dimethylsuccinyl)-17β-(3-piperidin-1-yl-propionamido)-21-oxolup-18-ene]",< 199
9,"CC(C)C1=C2[C@H]3CC[C@@H]4[C@@]5(C)CC[C@H](OC(=O)CC(C)(C)C(=O)O)C(C)(C)[C@@H]5CC[C@@]4(C)[C@]3(C)CC[C@@]2(NC(=O)C2CCN(C)CC2)CC1=O [19-36, 3β-O-(3′,3′-Dimethylsuccinyl)-17β-(1-methylpiperidine-4-amido)-21-oxolup-18-ene]",< 199
10,"Cc1nnc(C(=O)N[C@@]23CC[C@]4(C)C(CCC5[C@@]6(C)CC[C@H](OC(=O)[C@H]7CCC[C@@H](C(=O)O)C7)C(C)(C)C6CC[C@]54C)C2=C(C(C)C)C(=O)C3)o1 (stereo partly drawn) [19-81, 3β-O-(cis-Cyclohexane-3′-carboxylic acid-1′-carboxyl)-17β-[(5-methyl-[1,3,4]oxadiazol-2-carbonyl)-amino]-21-oxolup-18-ene]",200 to 999
11,"Cc1cc(C(=O)N[C@@]23CC[C@]4(C)C(CCC5[C@@]6(C)CC[C@H](OC(=O)CC(C)(C)C(=O)O)C(C)(C)C6CC[C@]54C)C2=C(C(C)C)C(=O)C3)no1 (stereo partly drawn) [19-24, 3β-O-(3′,3′-Dimethylsuccinyl)-17β-(5-methylisoxazole-3-amido)-21-oxolup-18-ene]",< 199
12,"CC(C)C1=C2C3CCC4[C@@]5(C)CC[C@H](OC(=O)CC(C)(C)C(=O)O)C(C)(C)C5CC[C@@]4(C)[C@]3(C)CC[C@@]2(NC(=O)NCC2CCCCC2)CC1=O (stereo partly drawn) [17-8, 3β-O-(3′,3′-Dimethylsuccinyl)-17β-[N′-(cyclohexylmethyl)ureido]-21-oxolup-18-ene]",< 199
13,"CC(C)C1=C2C3CCC4[C@@]5(C)CC[C@H](OC(=O)CC(C)(C)C(=O)O)C(C)(C)C5CC[C@@]4(C)[C@]3(C)CC[C@@]2(NC(=O)OC(C)C2CC2)CC1=O (stereo partly drawn) [20-10, 3β-O-(3′,3′-Dimethylsuccinyl)-17β-(1-cyclopropylethoxycarbonylamino)-21-oxolup-18-ene]",< 199
14,"CC(C)C1=C2C3CCC4[C@@]5(C)CC[C@H](OC(=O)CC(C)(C)C(=O)O)C(C)(C)C5CC[C@@]4(C)[C@]3(C)CC[C@@]2(NC(=O)OCC2(N)CC2)CC1=O (stereo partly drawn) [20-12, 3β-O-(3′,3′-Dimethylsuccinyl)-17β-(1-amino-cyclopropylmethoxycarbonylamino)-21-oxolup-18-ene]",< 199
15,"Cc1nnc(C(=O)N(C)[C@@]23CC[C@]4(C)[C@H](CC[C@@H]5[C@@]6(C)CC[C@H](OC(=O)CC(C)(C)C(=O)O)C(C)(C)[C@@H]6CC[C@]54C)C2=C(C(C)C)C(=O)C3)o1 [19-69, 3β-O-(3′,3′-Dimethylsuccinyl)-17β-[methyl-(5-methyl-[1,3,4]oxadiazole-2-carbonyl)-amino]-21-oxolup-18-ene]",< 199
16,"CC(C)C1=C2[C@H]3CC[C@@H]4[C@@]5(C)CC[C@H](OC(=O)CC(C)(C)C(=O)O)C(C)(C)[C@@H]5CC[C@@]4(C)[C@]3(C)CC[C@@]2(NC(=O)N2CCN(C)CC2)CC1=O [17-16, 3β-O-(3′,3′-Dimethylsuccinyl)-17β-[(4-methyl-piperazine-1-carbonyl)-amino]-21-oxolup-18-ene]",< 199
17,"CC(C)C1=C2C3CCC4[C@@]5(C)CC[C@H](OC(=O)CC(C)(C)C(=O)O)C(C)(C)C5CC[C@@]4(C)[C@]3(C)CC[C@@]2(NC(=O)N(C)C(C)C)CC1=O (stereo partly drawn) [17-18, 3β-O-(3′,3′-Dimethylsuccinyl)-17β-[N′-isopropyl-N′-methyl-ureido]-21-oxolup-18-ene]",< 199
18,"CC(C)C1=C2[C@H]3CC[C@@H]4[C@@]5(C)CC[C@H](OC(=O)CC(C)(C)C(=O)O)C(C)(C)[C@@H]5CC[C@@]4(C)[C@]3(C)CC[C@@]2(NC(=O)Nc2ccncn2)CC1=O [17-46, 3β-O-(3′,3′-Dimethylsuccinyl)-17β-(N′-pyrimidin-4-yl-ureido)-21-oxolup-18-ene]",< 199
19,"CC(C)C1=C2C3CCC4[C@@]5(C)CC[C@H](OC(=O)CC(C)(C)C(=O)O)C(C)(C)C5CC[C@@]4(C)[C@]3(C)CC[C@@]2(NC(=O)NC2CCC(F)(F)CC2)CC1=O (stereo partly drawn) [17-57, 3β-O-(3′,3′-Dimethylsuccinyl)-17β-[N′-(4,4-difluorocyclohexyl)ureido]-21-oxolup-18-ene]",< 199
20,"CC(C)C1=C2C3CCC4[C@@]5(C)CC[C@H](OC(=O)CC(C)(C)C(=O)O)C(C)(C)C5CC[C@@]4(C)[C@]3(C)CC[C@@]2(NC(=O)OCc2ccccc2)CC1=O (stereo partly drawn) [20-8, 3β-O-(3′,3′-Dimethylsuccinyl)-17β-benzyloxycarbonylamino-21-oxolup-18-ene]",< 199

# Same assay, conditions: Human immunodeficiency virus 1, MT2 cells, without human serum, average IC50 if tested more than once, read-out: MT2 (HIVIIIB) IC50 range
row,SMILES,IC50 [nM]
1,"CC(C)C1=C2[C@H]3CC[C@@H]4[C@@]5(C)CC[C@H](OC(=O)CC(C)(C)C(=O)O)C(C)(C)[C@@H]5CC[C@@]4(C)[C@]3(C)CC[C@@]2(NC(=O)N2CCNCC2)CC1=O [17-15, 3β-O-(3′,3′-Dimethylsuccinyl)-17β-[(piperazine-1-carbonyl)-amino]-21-oxolup-18-ene]",< 199
2,"Cc1cc(C(=O)N[C@@]23CC[C@]4(C)C(CCC5[C@@]6(C)CC[C@H](OC(=O)CC(C)(C)C(=O)O)C(C)(C)C6CC[C@]54C)C2=C(C(C)C)C(=O)C3)no1 (stereo partly drawn) [19-24, 3β-O-(3′,3′-Dimethylsuccinyl)-17β-(5-methylisoxazole-3-amido)-21-oxolup-18-ene]",< 199
